Results from the supplement of paper PMC9663587.

What was measured:
Test in all cases: area over the GR curve, 72 h; higher = more effect;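 also: Dye Drop or Deep Dye Drop imaging of viable cells in 384-well plates (Hoechst nuclei, LIVE/DEAD dye), nine half-log doses, GR normalized to DMSO controls and time-zero plates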
[1] = system: CAMA1
[2] = system: MCF10A
[3] = system: HTERT_HME1
[4] = system: 184A1
[5] = system: SUM149
[6] = system: HCC1806
[7] = system: HCC1419
[8] = system: MGH312
[9] = system: SUM44PE
[10] = system: SUM1315
[11] = system: SUM159
[12] = system: SUM185PE

Row | SMILES | area over the GR curve [1] [GR] | area over the GR curve [2] [GR] | area over the GR curve [3] [GR] | area over the GR curve [4] [GR] | area over the GR curve [5] [GR] | area over the GR curve [6] [GR] | area over the GR curve [7] [GR] | area over the GR curve [8] [GR] | area over the GR curve [9] [GR] | area over the GR curve [10] [GR] | area over the GR curve [11] [GR] | area over the GR curve [12] [GR]
1 | CC(=O)O[C@H]1C(=O)[C@@]2(C)[C@H]([C@H](OC(=O)c3ccccc3)[C@]3(O)C[C@H](OC(=O)[C@H](O)[C@@H](NC(=O)c4ccccc4)c4ccccc4)C(C)=C1C3(C)C)[C@]1(OC(C)=O)CO[C@@H]1C[C@@H]2O [Paclitaxel] (max 1 µM) | 0.953 | 0.702 | 0.676 | 0.75 | 0.839 | 0.838 | 0.47 | 0.973 | 0.953 | 0.793 | 0.65 | 0.479
2 | CCCCOc1c(C(=O)c2c(F)cc(C)cc2F)c[nH]c2nncc1-2 (max 10 µM) | 0.842 | 0.39 | 0.862 | 0.954 | 0.637 | 0.455 | 0.301 | 0.628 | 1.12 | 0.872 | 0.466 | 0.103
3 | C[C@@H]1COCCN1c1cc(C2([S@](C)(=N)=O)CC2)nc(-c2cc[nH]c3nccc2-3)n1 [AZD6738] (max 10 µM) | -0.0516 | 0.0334 | -0.0027 | -0.0342 | 0.117 | 0.307 | 0.0421 | -0.22 | 0.365 | 0.0543 | 0.0107 | 0.0637
4 | CCN1CCN(Cc2ccc(Nc3ncc(F)c(-c4cc(F)c5nc(C)n(C(C)C)c5c4)n3)nc2)CC1 (max 10 µM) | 0.613 | 0.381 | 0.428 | 0.635 | 0.344 | 0.392 | 0.433 | 0.124 | 0.651 | 0.582 | 0.372 | 0.254
5 | Cc1cc(Nc2ncc(Cl)c(Nc3ccccc3S(=O)(=O)C(C)C)n2)c(OC(C)C)cc1C1CCNCC1 [Ceritinib/LDK378] (max 10 µM) | 0.236 | 0.184 | 0.286 | 0.347 | 0.249 | 0.156 | 0.206 | 0.001 | 0.131 | 0.413 | 0.213 | 0.261
6 | COc1cc2c(Oc3ccc4[nH]c(C)cc4c3F)ncnc2cc1OCCCN1CCCC1 [Cediranib/AZD2171] (max 10 µM) | 0.109 | 0.031 | -0.0207 | 0.0594 | 0.0456 | 0.0606 | 0.0482 | -0.0345 | -0.0271 | 0.243 | 0.0309 | 0.582
7 | CNCc1ccc(-c2[nH]c3cc(F)cc4c3c2CCNC4=O)cc1 [Rucaparib] (max 10 µM) | 0.0981 | 0.0413 | 0.121 | 0.0986 | 0.2 | 0.117 | 0.0527 | 0.189 | 0.0038 | 0.371 | 0.0948 | 0.108
8 | NC(=O)Nc1cc(-c2cccc(F)c2)sc1C(=O)N[C@H]1CCCNC1 [AZD7762] (max 10 µM) | 0.418 | 0.225 | 0.435 | -0.0013 | 0.657 | 0.89 | 0.561 | 0.469 | 0.738 | 0.68 | 0.277 | 0.447
9 | CC(C)NC[C@@H](C(=O)N1CCN(c2ncnc3c2[C@H](C)C[C@H]3O)CC1)c1ccc(Cl)cc1 [Ipatasertib/GDC0068] (max 10 µM) | 0.412 | 0.06 | 0.0249 | 0.12 | 0.124 | 0.0145 | 0.0911 | 0.933 | 0.412 | 0.124 | 0.0758 | 0.155
10 | C=CC(=O)Nc1ccc(C(=O)Nc2[nH]nc3c2CN(C(=O)N[C@H](CN(C)C)c2ccccc2)C3(C)C)cc1 [YKL-5-124] (max 10 µM) | 0.968 | 0.921 | 0.889 | 0.929 | 0.875 | 1.01 | 1.01 | 0.923 | 1.16 | 0.703 | 0.857 | 0.518
11 | CCc1cnn2c(NCc3ccc[n+]([O-])c3)cc(N3CCCC[C@H]3CCO)nc12 (max 1 µM) | 0.606 | 0.528 | 0.552 | 0.636 | 0.687 | 0.643 | 0.443 | 0.867 | 0.334 | 0.766 | 0.465 | 0.261
12 | CC(=O)c1c(C)c2cnc(Nc3ccc(N4CCN(CCOCCOCCOCCNC(=O)COc5cccc6c5C(=O)N(C5CCC(=O)NC5=O)C6=O)CC4)cn3)nc2n(C2CCCC2)c1=O (stereo not drawn) [BSJ-03-123] (max 10 µM) | 0.658 | 0.323 | 0.422 | 0.708 | 0.293 | 0.21 | 0.415 | 0.129 | 0.284 | 0.312 | 0.265 | 0.156
13 | CN(C)C/C=C/C(=O)Nc1ccc(O[C@@H]2CCC[C@@H](Nc3ncc(Cl)c(-c4c[nH]c5ccccc45)n3)C2)cc1 [BSJ-01-175] (max 10 µM) | 0.68 | 0.3 | 0.955 | 1.15 | 0.747 | 0.581 | 0.39 | 1.47 | 1.27 | 0.509 | 0.646 | 0.597
14 | Nc1ccc(-c2ccc3ncc4ccc(=O)n(-c5cccc(C(F)(F)F)c5)c4c3c2)cn1 [Torin2] (max 1 µM) | 0.507 | 0.337 | 0.339 | 0.46 | 0.255 | 0.388 | 0.634 | 0.816 | 0.737 | 0.486 | 0.295 | 0.473
15 | CC[C@@H]1C(=O)N(C)c2cnc(Nc3ccc(C(=O)N[C@H]4CC[C@H](N5CCN(CC6CC6)CC5)CC4)cc3OC)nc2N1C(C)C [Volasertib/BI6727] (max 1 µM) | 0.674 | 0.447 | 0.415 | 0.54 | 0.569 | 0.726 | 0.325 | 0.801 | 0.623 | 0.664 | 0.392 | 0.286
16 | O=C1NC(=O)[C@@H](c2cn3c4c(cccc24)CCC3)[C@@H]1c1c[nH]c2ccccc12 [Tivantinib/ARQ197] (max 10 µM) | 0.526 | 0.451 | 0.648 | 0.582 | 0.446 | 0.446 | 0.238 | 0.396 | 0.762 | 0.475 | 0.403 | 0.239
17 | CN1CC[C@H](c2c(O)cc(O)c3c(=O)cc(-c4ccccc4Cl)oc23)[C@H](O)C1 [Flavopiridol] (max 1 µM) | 0.253 | 0.277 | 0.319 | 0.418 | 0.255 | 0.257 | 0.225 | 0.452 | 0.406 | 0.416 | 0.256 | 0.308
18 | Cc1nc(Nc2ncc(C(=O)Nc3c(C)cccc3Cl)s2)cc(N2CCN(CCO)CC2)n1 [Dasatinib] (max 10 µM) | 0.152 | 0.339 | 0.415 | 0.264 | 0.52 | 0.63 | 0.311 | 0.908 | 0.128 | 0.74 | 0.0885 | 0.455
19 | Cc1nc(-c2cn3c(n2)-c2ccc(-c4cnn(C(C)(C)C(N)=O)c4)cc2OCC3)n(C(C)C)n1 [Taselisib/GDC0032] (max 10 µM) | 0.245 | 0.484 | 0.439 | 0.457 | 0.205 | 0.258 | 0.852 | 0.886 | 1.02 | 0.397 | 0.399 | 0.879
20 | Cc1nc(NC(=O)N2CCC[C@H]2C(N)=O)sc1-c1ccnc(C(C)(C)C(F)(F)F)c1 [Alpelisib/BYL719] (max 10 µM) | 0.0106 | 0.113 | 0.112 | 0.136 | 0.0367 | 0.0386 | 0.356 | -0.015 | 0.33 | 0.116 | 0.056 | 0.36
21 | COc1cc(N2CCN(C)CC2)ccc1Nc1ncc2c(n1)N(C)c1ccccc1C(=O)N2CC(F)(F)F [FMF-03-146-1] | -0.0223 | -0.0018 | 0.049 | 0.0018 | -0.0043 | 0.0215 | 0.0393 | 0.025 | 0.016 | 0.0401 | 0.0317 | 0.0495
22 | CN(C)CC[C@H](CSc1ccccc1)Nc1ccc(S(=O)(=O)NC(=O)c2ccc(N3CCN(Cc4ccccc4-c4ccc(Cl)cc4)CC3)cc2)cc1[N+](=O)[O-] [ABT-737] (max 10 µM) | 0.0008 | 0.0104 | 0.081 | 0.153 | 0.142 | -0.111 | -0.0276 | 0.224 | -0.0051 | 0.0822 | 0.0034 | 0.319
23 | CO[C@@H](C)Cn1c(=O)n(C)c2cnc3ccc(-c4cncc(C(C)(C)O)c4)cc3c21 (max 10 µM) | 0.972 | 0.447 | 0.676 | 0.761 | 0.286 | 0.43 | 0.979 | 1.21 | 1.02 | 0.693 | 0.727 | 0.679
24 | CN(C)C/C=C/C(=O)Nc1ccc(C(=O)Nc2cccc(Nc3ncc(Cl)c(-c4c[nH]c5ccccc45)n3)c2)cc1 [THZ1] (max 1 µM) | 0.459 | 0.36 | 0.76 | 0.528 | 0.425 | 0.367 | 0.369 | 0.97 | 0.706 | 0.229 | 0.161 | 0.484
